Experimental data as given in US20240180872A1, “METHODS AND COMPOUNDS OF CANNABIDIOL, MELATONIN AND AKBA FOR TREATING PANCREATIC CANCER” (priority 2021, published 2024).

System: PANC-1 cells
Test: Nude mice orthotopic pancreatic tumor model
Type: in vivo, Athymic Nude-Foxn1nu mice
Details: after 30 days of treatment, GEM 50 mg/kg, MLT 400 mg/kg, CBD 10 mg/kg
From the text: Species and strain: Athymic Nude-Foxn1nu mice.
PANC-1 cells were thawed and cultured in DMEM (Dulbecco's Modified Eagle Medium) +2% L-glutamine +10% FBS (Fetal Bovine Serum), Penicillin/Streptomycin and maintain the cell culture in 100 mm Petri dish (Sarstedt, Germany).
A period of acclimation (at least 5 days) was allowed to mice before tumor inoculation. Before the inoculum, PANC-1 cells were detached with trypsin, counted with trypan blue and for each inoculum, 1×10^6 cells were suspended in 20 ul of PBS. Mice (n=20) were anesthetized with isoflurane (induction at 4% and maintenance at 2%) and cell solutions (20 μL, 1×10^6 cells) were orthotopically injected into the tail of the pancreas exploiting the echo-guided procedure. The 20 animals inoculated with tumor cells were divided in 4 groups (Table 6) when tumor size reaches a volume of approximately 20-30 mm^3 (tumor size was determined by ultrasound imaging analysis).
The animals were inoculated with 1×10^6 PANC-1 cells with VevoLAZR-X system by using echo-guided injection method. All animals were treated every three days for 30 days starting when tumor reached the volume of approximately 30 mm^3 (around 10-15 days from the inoculum). […]
Tumor volume was analyzed by using Vevo Lab software (Fujifilm Visualsonics).

With `Nc1ccn([C@@H]2O[C@H](CO)[C@@H](O)C2(F)F)c(=O)n1` [GEM, Gemcitabine] the tumor volumes (IP every three days, Vehicle 630,8) was 111,1 and the “effect on tumor volume” value (IP) was “high effect”.
